What was measured:
[1] = system: CB-2 cells; assay: [3H]-thymidine incorporation (cell proliferation) in CB-2 cells; type: cell-based, Chinese hamster; conditions: allicin 0-54 μM, 16 h
Method: (§1) The following cell lines were used: N87 human gastric tumor cell line expressing the ErbB-2 receptors (described by Park et al, 1990); CB-2 cell line, generated by transfection of Chinese hamster ovary (CHO) cells with mammalian expression vectors that direct expression of ErbB-2 (Tzahar et al, 1996); and 32D cell line known to be devoid of the ErbB-2 receptors (described by Pinkas-Kramarski, 1996).
[Methyl-^3H]thymidine incorporation (Amersham Pharmacia Biotech, UK) into DNA was measured in 96-well plates. Cells (1,000-20,000 cells/well) were grown 6 h after seeding at 37° C. Cells were treated with conjugates for 1 hour and then 3×washed with medium. […] Cells were harvested after 16 hours incubation at 37° C.
Different concentrations of pure allicin were applied to tissue cultured […] CB-2 cancer cells for quantitative determination of the effective concentration. Thus, CB-2 cells were cultured in 96-well plate (2000 cells/well) for 6-16 h at 37° C. Pure allicin was added (10 μl/well) from pre-diluted allicin solutions in PBS to final concentrations of 0-54 μM (0-9 μg/ml). [^3H]-Thymidine diluted with medium was added to the cell culture (0.8 μCi/well). Cells were harvested after incubation for 16 h at 37° C. and the level of incorporated [^3H]-thymidine was measured to determine the extent of cell proliferation. […]

[2] = background statement; cited from earlier work
[3] = system: CB-2 cells; assay: Trypan blue viability of CB-2 cells; type: cell-based
Method: as §1
(§2) Viability of living cells was done after staining with Trypan Blue (0.025%) for 10 minutes.
(§3) Cell cultures of N87 (20,000 cells/well) were grown in 96-well plates and 32D cells were grown in suspension in 12-well plates (200,000 cells/ml). Cells were treated with: none, mAb ErbB-2 or mAb-ErbB-2-alliinase conjugate (total protein 2 μg/20,000 cells) for 1 hour at 37° C.

[4] = system: N-87 tumors; assay: In vivo assay of antitumor effects (tumor growth) in nude mice injected with N-87 cells; conditions: alliin alone i.p., control mice
Method: N-87 cultured cells (3-5×10^6) were injected subcutaneously into the back of the mice. One to 5 days later, groups of 6 to 8 mice received either none or mAb-alliinase conjugate by intravenous injection (20 μg mAb/mouse). Conjugates were injected with 3-4 days intervals.
All mice were supplemented with Pyridoxine (vitamin B6) in the drinking water (100 mg/L). […] Tumor size was measured every second day.
All the animal groups were injected with N-87 cells 1-5 days before any treatment. • Group 1. […] Mice were treated with mAb-alliinase conjugates and alliin was administered regularly as described below.
MAb-alliinase conjugate was injected I.V. every 3-4 days. Mice were treated ×5 with the conjugate (20 μg/mouse) in. 3-4 day intervals. Total amount of mAb in the conjugate/mouse was 0.1 mg.

[5] = system: N87 cancer cells; assay: Trypan blue viability of N87 cells; type: cell-based; conditions: alliin only, mAb ±alliin, or conjugate without alliin
Method: as §1, §2, §3

Row | Compound | [3H]-thymidine incorporation (DNA synthesis) [1] | lifetime after being mixed with blood [2] | lethal concentration ([3]; Trypan blue staining, CB-2 cells) | tumor size [4] | cell damage (Trypan blue) [5] | cell damage (Trypan blue) ([3]; CB-2, alliin only, mAb ±alliin, or conjugate without alliin)
1 | C=CCS[S+]([O-])CC=C (stereo not drawn) [allicin, thio-2-propene-1-sulfinic acid S-allyl ester] | inhibits DNA synthesis | disappears within a few minutes | about 20 μM | – | – | –
2 | S-allyl-L-cysteine sulfoxide [alliin] | – | – | – | no effect on the tumor size | not damaged | not damaged

Reference: patent US7445802B2, “Site-specific in situ generation of allicin using a targeted alliinase delivery system for the treatment of cancers, tumors, infectious diseases and other allicin-sensitive diseases” (Yeda Research and Development Co. Ltd, priority 2000, dated 2008)
